Assay results taken from US9000159B2 (Glenmark Pharmaceuticals, S.A., priority 2009, dated 2015).

Biological target: T1, Human TRPA1 (Homo sapiens, UniProt O75762)
T1 construct: expressed in transfected cells; host or cells: CHO cells
Experiment: 45Calcium uptake assay: inhibition of AITC induced cellular uptake of radioactive calcium
Assay type: cell-based
Settings: AITC (30 μM) induced 45Ca uptake, Human TRPA1 expressing CHO cells; for inhibition at 1 µM: 1.0 μM test compound, read-out: Percentage inhibition at 1.0 μM; for inhibition at 10 µM: 10.0 μM test compound, read-out: Percentage inhibition at 10.0 μM; for IC50: read-out: Human IC50 value (range)
Excerpt: The illustrative examples of the present invention are screened for TRPA1 activity according to a modified procedure described in (a) Tóth, A. et al., Life Sciences, 2003, 73, 487-498. (b) McNamara C, R. et al., Proc. Natl. Acad. Sci. U.S.A., 2007, 104, 13525-13530. The screening of the compounds can be carried out by other methods and procedures known to persons skilled in the art.
Screening for TRPA1 Antagonist Using the ^45Calcium Uptake Assay
The inhibition of TRPA1 receptor activation was measured as inhibition of allyl isothiocyanate (AITC) induced cellular uptake of radioactive calcium. Test compounds were dissolved in DMSO to prepare 10 mM stock solution and then diluted using plain medium with 0.1% BSA and 1.8 mM CaCl2 to get desired concentration. Final concentration of DMSO in the reaction was 0.5% (v/v). Human TRPA1 expressing CHO cells were grown in F-12 DMEM medium with 10% FBS, 1% penicillin-streptomycin solution, 400 μg/ml of G-418. Cells were seeded 24 h prior to the assay in 96 well plates so as to get ˜50,000 cells per well on the day of experiment. Cells were treated with test compounds for 10 min followed by addition of AITC at a final concentration of 30 μM and 5 μCi/ml ^45Ca^+2 for 3 min. Cells were washed and lysed using buffer containing 1% Triton X-100, 0.1% deoxycholate and 0.1% SDS. Radioactivity in the lysate was measured in Packard Top count after addition of liquid scintillant. Concentration response curves were plotted as a % of maximal response obtained in the absence of test antagonist. IC50 value was calculated from concentration response curve by nonlinear regression analysis using GraphPad PRISM software.

T1 sequence (O75762 whole entry): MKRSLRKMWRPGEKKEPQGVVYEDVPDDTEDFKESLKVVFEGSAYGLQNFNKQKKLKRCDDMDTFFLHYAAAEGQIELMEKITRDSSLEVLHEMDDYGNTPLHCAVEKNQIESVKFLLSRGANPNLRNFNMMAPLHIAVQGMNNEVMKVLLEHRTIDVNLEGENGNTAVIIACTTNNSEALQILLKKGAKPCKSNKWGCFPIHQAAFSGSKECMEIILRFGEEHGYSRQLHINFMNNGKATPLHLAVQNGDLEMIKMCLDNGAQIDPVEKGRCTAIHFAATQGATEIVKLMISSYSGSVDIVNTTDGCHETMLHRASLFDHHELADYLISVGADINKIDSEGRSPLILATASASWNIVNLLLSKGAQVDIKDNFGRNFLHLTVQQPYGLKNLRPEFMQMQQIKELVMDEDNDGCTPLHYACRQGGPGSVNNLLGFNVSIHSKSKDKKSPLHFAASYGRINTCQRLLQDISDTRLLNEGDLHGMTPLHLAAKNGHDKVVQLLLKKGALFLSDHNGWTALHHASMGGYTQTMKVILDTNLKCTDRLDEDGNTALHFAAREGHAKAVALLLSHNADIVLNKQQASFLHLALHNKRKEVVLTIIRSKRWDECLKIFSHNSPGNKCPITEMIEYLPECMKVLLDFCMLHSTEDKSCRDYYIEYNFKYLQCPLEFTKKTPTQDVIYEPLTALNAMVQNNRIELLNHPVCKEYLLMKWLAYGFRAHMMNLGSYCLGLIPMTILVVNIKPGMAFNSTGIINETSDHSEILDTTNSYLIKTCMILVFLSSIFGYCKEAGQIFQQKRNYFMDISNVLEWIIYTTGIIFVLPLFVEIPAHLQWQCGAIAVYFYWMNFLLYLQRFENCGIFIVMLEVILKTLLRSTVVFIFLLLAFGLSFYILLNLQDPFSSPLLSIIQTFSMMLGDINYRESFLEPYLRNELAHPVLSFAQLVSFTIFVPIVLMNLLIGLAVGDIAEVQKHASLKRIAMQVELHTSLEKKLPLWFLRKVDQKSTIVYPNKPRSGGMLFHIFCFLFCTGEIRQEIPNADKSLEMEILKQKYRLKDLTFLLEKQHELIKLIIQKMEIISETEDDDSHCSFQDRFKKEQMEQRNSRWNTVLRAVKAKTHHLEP

inhibition at 1 µM [%]	inhibition at 10 µM [%]	IC50 [µM]	Compound
92.8	97.5	0.05 to 0.1	Cn1nc2c(c1CC(=O)Nc1nc(-c3cccc(C(F)(F)F)c3)cs1)c(=O)n(C)c(=O)n2C [Example 48, N-{4-[3-(Trifluoromethyl)phenyl]-1,3-thiazol-2-yl}-2-(2,5,7-trimethyl-4,6-dioxo-4,5,6,7-tetrahydro-2H-pyrazolo[3,4-d]pyrimidin-3-yl)acetamide]
27.1	77	–	Cn1c(=O)c2c(CC(=O)Nc3nc(-c4cc(F)c(OCC(F)(F)F)c(F)c4)cs3)cn(C)c2n(C)c1=O [Example 44, N-{4-[3,5-Difluoro-4-(2,2,2-trifluoroethoxy)phenyl]-1,3-thiazol-2-yl}-2-(1,3,7-trimethyl-2,4-dioxo-2,3,4,7-tetrahydro-1H-pyrrolo[2,3-d]pyrimidin-5-yl)acetamide]
64.7	96.8	–	Cc1cn(CC(=O)Nc2nc(-c3ccc(C(F)(F)F)c(F)c3)cs2)c2c(=O)n(C)c(=O)n(C)c12 [Example 35, N-{4-[3-Fluoro-4-(trifluoromethyl)phenyl]-1,3-thiazol-2-yl}-2-(1,3,7-trimethyl-2,4-dioxo-1,2,3,4-tetrahydro-5H-pyrrolo[3,2-d]pyrimidin-5-yl)acetamide]
95.6	97.1	< 0.05	Cc1cc2c(c(=O)n(C)c(=O)n2C)n1CC(=O)Nc1nc(-c2cc(Cl)c(OCC(C)(C)C)c(Cl)c2)cs1 [Example 29]
87.4	92.2	0.05 to 0.1	Cn1c(=O)c2c(ccn2CC(=O)Nc2nc(-c3ccc(OCC(F)(F)F)c(Br)c3)cs2)n(C)c1=O [Example 23, N-{4-[3-Bromo-4-(2,2,2-trifluoroethoxy)phenyl]-1,3-thiazol-2-yl}-2-(1,3-dimethyl-2,4-dioxo-1,2,3,4-tetrahydro-5H-pyrrolo[3,2-d]pyrimidin-5-yl)acetamide]
60.7	91.3	–	Cn1c(=O)c2c(ccn2CC(=O)Nc2nc(-c3ccc(F)c(C(F)(F)F)c3F)cs2)n(C)c1=O [Example 9, 2-(1,3-Dimethyl-2,4-dioxo-1,2,3,4-tetrahydro-5H-pyrrolo[3,2-d]pyrimidin-5-yl)-N-{4-[2,4-difluorophenyl-3-trifluoromethyl]-1,3-thiazol-2-yl}acetamide]
95.1	99.7	< 0.05	Cn1nc2c(c1CC(=O)Nc1nc(-c3ccc(F)c(C(F)(F)F)c3F)cs1)c(=O)n(C)c(=O)n2C [Example 63, N-{4-[2,4-Difluoro-3-(trifluoromethyl)phenyl]-1,3-thiazol-2-yl}-2-(2,5,7-trimethyl-4,6-dioxo-4,5,6,7-tetrahydro-2H-pyrazolo[3,4-d]pyrimidin-3-yl)acetamide]
91.5	98.8	< 0.05	Cn1c(=O)c2c(cnn2CC(=O)Nc2nc(-c3ccc(OCC(C)(C)C)c(Cl)c3)cs2)n(C)c1=O [Example 70, N-{4-[3-Chloro-4-(2,2-dimethylpropoxy)phenyl]-1,3-thiazol-2-yl}-2-(4,6-dimethyl-5,7-dioxo-4,5,6,7-tetrahydro-1H-pyrazolo[4,3-d]pyrimidin-1-yl)acetamide]
87.6	99.2	< 0.05	Cc1cc2c(c(=O)n(C)c(=O)n2C)n1CC(=O)Nc1nc(-c2cc(F)c(OCC3CCC3)c(F)c2)cs1 [Example 27, N-[4-(4-Cyclobutylmethoxy-3,5-difluorophenyl)-1,3-thiazol-2-yl]-2-(1,3,6-trimethyl-2,4-dioxo-1,2,3,4-tetrahydro-5H-pyrrolo[3,2-d]pyrimidin-5-yl)acetamide]
92.2	99.2	0.05 to 0.1	Cn1nc2c(c1CC(=O)Nc1nc(-c3cccc(C(F)(F)F)c3F)cs1)c(=O)n(C)c(=O)n2C [Example 55, N-{4-[2-Fluoro-3-(trifluoromethyl)phenyl]-1,3-thiazol-2-yl}-2-(2,5,7-trimethyl-4,6-dioxo-4,5,6,7-tetrahydro-2H-pyrazolo[3,4-d]pyrimidin-3-yl)acetamide]
96.3	98.1	< 0.05	Cn1c(=O)c2c(ccn2CC(=O)Nc2nc(-c3cc(F)c(OCC(F)(F)F)c(F)c3)cs2)n(C)c1=O [Example 11, N-{4-[3,5-Difluoro-4-(2,2,2-trifluoroethoxy)phenyl]-1,3-thiazol-2-yl}-2-(1,3-dimethyl-2,4-dioxo-1,2,3,4-tetrahydro-5H-pyrrolo[3,2-d]pyrimidin-5-yl)acetamide]

Further lines, the molecule ahead of its results:

Compound	inhibition at 1 µM [%]	inhibition at 10 µM [%]	IC50 [µM]
Cn1nc2c(c1CC(=O)Nc1nc(-c3ccc(OC(F)F)c(F)c3)cs1)c(=O)n(C)c(=O)n2C [Example 61, N-{4-[4-(Difluoromethoxy)-3-fluorophenyl]-1,3-thiazol-2-yl}-2-(2,5,7-trimethyl-4,6-dioxo-4,5,6,7-tetrahydro-2H-pyrazolo[3,4-d]pyrimidin-3-yl)acetamide]	86	98.3	0.05 to 0.1
Cn1c(=O)c2c(c(Br)cn2CC(=O)Nc2nc(-c3cc(F)c(OCC(C)(C)C)c(F)c3)cs2)n(C)c1=O [Example 36, 2-(7-Bromo-1,3-dimethyl-2,4-dioxo-1,2,3,4-tetrahydro-5H-pyrrolo[3,2-d]pyrimidin-5-yl)-N-{4-[3,5-difluoro-4-(2,2-dimethylpropoxy)phenyl]-1,3-thiazol-2-yl}acetamide]	35.6	70.1	–
Cc1cc2c(c(=O)n(C)c(=O)n2C)n1CC(=O)Nc1nc(-c2ccc(OCC(C)(C)C)c(F)c2)cs1 [Example 31, N-{4-[4-(2,2-Dimethylpropoxy)-3-fluorophenyl]-1,3-thiazol-2-yl}-2-(1,3,6-trimethyl-2,4-dioxo-1,2,3,4-tetrahydro-5H-pyrrolo[3,2-d]pyrimidin-5-yl)acetamide]	87.4	95.3	0.05 to 0.1
Cc1cc2c(c(=O)n(C)c(=O)n2C)n1CC(=O)Nc1nc(-c2cc(F)c(OCC(C)(C)C)c(Cl)c2)cs1 [Example 28]	99.5	99.7	< 0.05
Cc1nn(CC(=O)Nc2nc(-c3cc(Cl)c(OCC(C)(C)C)c(Cl)c3)cs2)c2c(=O)n(C)c(=O)n(C)c12 [Example 83, N-[4-(3,5-Dichloro-4-(2,2-dimethylpropoxy)phenyl)-1,3-thiazol-2-yl]-2-(3,4,6-trimethyl-5,7-dioxo-4,5,6,7-tetrahydro-1H-pyrazolo[4,3-d]pyrimidin-1-yl)acetamide]	75.6	95	< 0.05
Cn1c(=O)c2c(ccn2CC(=O)Nc2nc(-c3cc(Cl)c(OCCC(F)(F)F)c(Cl)c3)cs2)n(C)c1=O [Example 14, N-{4-[3,5-Dichloro-4-(3,3,3-trifluoropropoxy)phenyl]-1,3-thiazol-2-yl}-2-(1,3-dimethyl-2,4-dioxo-1,2,3,4-tetrahydro-5H-pyrrolo[3,2-d]pyrimidin-5-yl)acetamide]	92.5	92.5	< 0.05
Cn1c(=O)c2c(ccn2CC(=O)Nc2nc(-c3ccc(F)cc3F)cs2)n(C)c1=O [Example 1, N-[4-(2,4-Difluorophenyl)-1,3-thiazol-2-yl]-2-(1,3-dimethyl-2,4-dioxo-1,2,3,4-tetrahydro-5H-pyrrolo[3,2-d]pyrimidin-5-yl)acetamide]	23.1	21.4	–
CC(C)COc1c(Cl)cc(-c2csc(NC(=O)Cn3ncc4c3c(=O)n(C)c(=O)n4C)n2)cc1Cl [Example 75, N-[4-(3,5-Dichloro-4-isobutoxyphenyl)-1,3-thiazol-2-yl]-2-(4,6-dimethyl-5,7-dioxo-4,5,6,7-tetrahydro-1H-pyrazolo[4,3-d]pyrimidin-1-yl)acetamide]	99.3	100	< 0.05
Cn1c(=O)c2c(ccn2CC(=O)Nc2nc(-c3cc(Cl)c(OCC4CCC4)c(Cl)c3)cs2)n(C)c1=O [Example 19, 2-(1,3-Dimethyl-2,4-dioxo-1,2,3,4-tetrahydro-5H-pyrrolo[3,2-d]pyrimidin-5-yl)-N-{4-[4-(cyclobutylmethoxy)-3,5-dichlorophenyl]-1,3-thiazol-2-yl}acetamide]	72.1	76.9	–
Cc1cc2c(c(=O)n(C)c(=O)n2C)n1CC(=O)Nc1nc(-c2cc(F)c(OCC(F)(F)F)c(Cl)c2)cs1 [Example 30]	93.6	100	< 0.05
Cn1nc2c(c1CC(=O)Nc1cc(-c3ccc(Br)cc3)on1)c(=O)n(C)c(=O)n2C [Example 65, N-[5-(4-Bromophenyl)isoxazol-3-yl]-2-(2,5,7-trimethyl-4,6-dioxo-4,5,6,7-tetrahydro-2H-pyrazolo[3,4-d]pyrimidin-3-yl)acetamide]	12.5	24.6	–
